Data as given in ChEMBL document CHEMBL1201862, “PubChem BioAssay data set” (2004).
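A five-concentration, 48-hour dose response in 96-well plates underlies each endpoint, interpolated linearly between surrounding concentrations. Abbreviation: GI50, concentration required for 50% inhibition of growth.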 Active and inactive are the calls of the source. Rule as the data show it: active = GI50 up to about 1.1 µM and inactive = higher.

Legend:
Assay in all cases: inhibition of tumour cell growth, NCI panel, 48 h
A498 = test system: A498
CCRF-CEM = test system: CCRF-CEM
HCT-116 = test system: HCT-116
HOP-92 = test system: HOP-92
Hs-578T = test system: Hs-578T
IGROV-1 = test system: IGROV-1
K562 = test system: K562
LOX IMVI = test system: LOX IMVI
NCI-H23 = test system: NCI-H23
NCI-H460 = test system: NCI-H460
NCI-H522 = test system: NCI-H522
OVCAR-4 = test system: OVCAR-4
RPMI-8226 = test system: RPMI-8226
SK-MEL-28 = test system: SK-MEL-28
SK-MEL-2 = test system: SK-MEL-2
SR = test system: SR
SW-620 = test system: SW-620
T47D = test system: T47D
EKVX = test system: EKVX
SK-OV-3 = test system: SK-OV-3

Structure (SMILES) | GI50 (A498) | GI50 (CCRF-CEM) | GI50 (HCT-116) | GI50 (HOP-92) | GI50 (Hs-578T) | GI50 (IGROV-1) | GI50 (K562) | GI50 (LOX IMVI) | GI50 (NCI-H23) | GI50 (NCI-H460) | GI50 (NCI-H522) | GI50 (OVCAR-4) | GI50 (RPMI-8226) | GI50 (SK-MEL-28) | GI50 (SK-MEL-2) | GI50 (SR) | GI50 (SW-620) | GI50 (T47D) | GI50 (EKVX) | GI50 (SK-OV-3)
CN(C)CCN1C(=O)N(CCN(C)C)c2c3cc(O)ccc3nc3c([N+](=O)[O-])ccc1c23 | 15.7 µM (inactive) | 0.538 µM (active) | 5.58 µM (inactive) | 15.3 µM (inactive) | 16.9 µM (inactive) | 2.81 µM (inactive) | 4.57 µM (inactive) | 10.7 µM (inactive) | 17.2 µM (inactive) | 3.63 µM (inactive) | 16.6 µM (inactive) | 9.66 µM (inactive) | 14.2 µM (inactive) | 25.3 µM (inactive) | 24.8 µM (inactive) | 0.245 µM (active) | 4.92 µM (inactive) | 18.4 µM (inactive) |  | 
CN(C)C=O.O=C(Nc1nnn[nH]1)c1nc(O)cc(-c2ccccc2)n1 | > 100 µM (inactive) |  | > 100 µM (inactive) | > 100 µM (inactive) | > 100 µM (inactive) | > 100 µM (inactive) | > 100 µM (inactive) | > 100 µM (inactive) | > 100 µM (inactive) | > 100 µM (inactive) | > 100 µM (inactive) | > 100 µM (inactive) | > 100 µM (inactive) | > 100 µM (inactive) | > 100 µM (inactive) | > 100 µM (inactive) | > 100 µM (inactive) | > 100 µM (inactive) | > 100 µM (inactive) | > 100 µM (inactive)
CCCCCC(C)SC1(C(=O)OC)CC(OC(C)=O)C(NC(C)=O)C([C@H](OC(C)=O)[C@@H](COC(C)=O)OC(C)=O)O1 (stereo not given in full) | 67.1 µM (inactive) |  | 43.9 µM (inactive) | 44.4 µM (inactive) | 29.4 µM (inactive) | > 100 µM (inactive) | 92.9 µM (inactive) |  | > 100 µM (inactive) | 78.7 µM (inactive) | 51.2 µM (inactive) |  | 33.7 µM (inactive) | > 100 µM (inactive) | 0.245 µM (active) | 64 µM (inactive) | > 100 µM (inactive) | 45.6 µM (inactive) |  | 
COC(=O)NN=C(c1ccc(Cl)cc1)c1ccc(Cl)cc1 | 17.9 µM (inactive) | 67.6 µM (inactive) | > 100 µM (inactive) |  | > 100 µM (inactive) | 22.9 µM (inactive) | > 100 µM (inactive) | > 100 µM (inactive) | > 100 µM (inactive) | > 100 µM (inactive) | > 100 µM (inactive) | 40.3 µM (inactive) | > 100 µM (inactive) | > 100 µM (inactive) | > 100 µM (inactive) | 94.2 µM (inactive) | > 100 µM (inactive) | > 100 µM (inactive) | > 100 µM (inactive) | > 100 µM (inactive)
O=[N+]([O-])c1ccc(Oc2c(Cl)cc(S(=O)(=O)N/C(=N\O)Nc3ccc(Cl)cc3)cc2Cl)c(Cl)c1 | 12.7 µM (inactive) | 27.3 µM (inactive) | 13.4 µM (inactive) | 12.8 µM (inactive) | 13.7 µM (inactive) |  | 15.8 µM (inactive) | 17.1 µM (inactive) | 17.7 µM (inactive) | 15.6 µM (inactive) | 13 µM (inactive) | 11.7 µM (inactive) | 15.2 µM (inactive) | 21.6 µM (inactive) | 17 µM (inactive) | 10.7 µM (inactive) | 24.9 µM (inactive) | 13.1 µM (inactive) | 14.8 µM (inactive) | 
COc1cc(/C=C2\N=C(c3ccccc3)N(c3cc4cc(Sc5ccccc5)ccc4[nH]3)C2=O)cc(OC)c1OC | 13.8 µM (inactive) | 16.9 µM (inactive) | 11.7 µM (inactive) | 6.92 µM (inactive) | 2.72 µM (inactive) | 15.5 µM (inactive) | 4.25 µM (inactive) | 11.3 µM (inactive) | 25.5 µM (inactive) | 14.3 µM (inactive) | 2.96 µM (inactive) | 26 µM (inactive) |  | 12.9 µM (inactive) |  | 2.18 µM (inactive) | 19.2 µM (inactive) | 8.17 µM (inactive) | 17.5 µM (inactive) | 21.6 µM (inactive)
CC1C2Cc3ccc(O)cc3C1(C)CCN2C (stereo not given) | > 100 µM (inactive) | > 100 µM (inactive) | > 100 µM (inactive) |  | > 100 µM (inactive) | > 100 µM (inactive) | > 100 µM (inactive) | > 100 µM (inactive) | > 100 µM (inactive) | > 100 µM (inactive) | > 100 µM (inactive) | > 100 µM (inactive) | > 100 µM (inactive) | > 100 µM (inactive) | > 100 µM (inactive) | > 100 µM (inactive) | > 100 µM (inactive) | > 100 µM (inactive) | > 100 µM (inactive) | > 100 µM (inactive)
Oc1ccc(-c2c3ccccc3c(-c3ccc(OCCBr)cc3)c3ccccc23)cc1 | 23.2 µM (inactive) | 60.1 µM (inactive) | 37.2 µM (inactive) |  | 24.3 µM (inactive) | 22 µM (inactive) | 42.1 µM (inactive) | 16.9 µM (inactive) | 15.6 µM (inactive) | 52.6 µM (inactive) | 35 µM (inactive) | 24.2 µM (inactive) | 31.1 µM (inactive) | 27.9 µM (inactive) | 22.2 µM (inactive) | 31.8 µM (inactive) | 53.3 µM (inactive) | 35.7 µM (inactive) | 32.9 µM (inactive) | 52.7 µM (inactive)
